Experimental data reported in patent US20110105323A1, “Calcium Salts of Phosphorous Acid for Increasing the Effect of Fungicides” (BASF SE, priority 2008, published 2011).
Read-outs that look alike come from different tables or passages of the source.

Key:
Plasmopara viticola [1] = assay: Example 7: downy mildew on grapevines, greenhouse, as example 6; type: in vivo
[2] = test system: downy mildew on grapevines; assay: Example 13: downy mildew on grapevines, outdoor test with natural infections; type: in vivo
[3] = test system: downy mildew on grapevines; assay: Example 12: downy mildew on grapevines, outdoor test with natural infections; type: in vivo
[4] = test system: downy mildew on grapevines; assay: Example 14: downy mildew on grapevines, outdoor test with natural infections; type: in vivo
Phytophthora infestans [5] = settings: in vivo
Plasmopara viticola [6] = assay: Example 8: downy mildew on grapevines, bar application pattern; type: in vivo
Phakopsora pachyrhizi = assay: Example 11: soybean rust on soybeans, greenhouse; type: in vivo
Plasmopara viticola [7] = assay: Example 9: downy mildew on grapevines, translaminar action; type: in vivo
Phytophthora infestans [8] = settings: in vivo; remark: listed apart in the source
Plasmopara viticola [9] = assay: Example 10: downy mildew on grapevines, greenhouse, protective spray (7 days); type: in vivo
Plasmopara viticola [10] = assay: Example 6: downy mildew on grapevines, greenhouse, protective spray (1 day); type: in vivo

N#Cc1sc2c(=O)c3ccccc3c(=O)c=2sc1C#N [dithianon]
Efficacy W (Plasmopara viticola [1]; dithianon 10 ppm in spray liquor, grapevine leaves sprayed 1 day before inoculation): 62%
Efficacy W ([2]; dithianon 400 ppm, outdoors, natural infections, 7 application dates, spray interval 14-16 days): 48%
Efficacy W ([3]; dithianon 300 ppm, outdoors, natural infections, spray interval 14-16 days, scored 1 day after the 6th application): 85%
Efficacy W ([4]; dithianon 300 ppm, outdoors, natural infections, spray interval 9-11 days, scored 4 days after the 8th application): 56%
Efficacy W (Phytophthora infestans [5]): 31%
Efficacy W (Plasmopara viticola [6]; dithianon 10 ppm, bar application on lower half of upper leaf side 1 day before inoculation, scored on apical half of leaf underside): 6%

O=C(Nc1ccccc1-c1ccc(Cl)cc1)c1cccnc1Cl [boscalid]
Efficacy W (Phakopsora pachyrhizi; boscalid 20 ppm, soybean 'Monsoy' leaves sprayed 2 days before inoculation, scored after 10-12 days): 11%

CCCCCCCCc1c(CC)nc2ncnn2c1N [fungicide A, 5-ethyl-6-octyl-[1,2,4]triazolo[1,5-a]pyrimidin-7-ylamine]
Efficacy W (Plasmopara viticola [7]; fungicide A 5 ppm, translaminar, applied to upper side of leaf 48 hours prior to inoculation): 1%
Efficacy W (Phytophthora infestans [8]): 39%
Efficacy W (Plasmopara viticola [9]; fungicide A 100 ppm, grapevine leaves sprayed 7 days before inoculation): 85%

[Ca+2].[O-]P([O-])O [Ca(H2PO3)2, calcium hydrogenphosphite]
Efficacy W (Plasmopara viticola [1]; in vivo): 3%
Efficacy W (Plasmopara viticola [7]; in vivo): 0%
Efficacy W ([2]; in vivo): 21%
Efficacy W ([3]; in vivo): 18%
Efficacy W (Plasmopara viticola [10]; in vivo): 3%
Efficacy W (Plasmopara viticola [9]; in vivo): 9%
Efficacy W ([4]; in vivo): 24%
Efficacy W (Plasmopara viticola [6]; in vivo): 0%
Efficacy W (Phakopsora pachyrhizi; in vivo): 48%

COC(=O)N(OC)c1ccccc1COc1ccn(-c2ccc(Cl)cc2)n1 [pyraclostrobin]
Efficacy W (Plasmopara viticola [10]; pyraclostrobin 0.5 ppm in spray liquor, Riesling leaves sprayed 1 day before inoculation): 92%
